How the values were obtained:
[1] = test system: C57bl/6 obese (ob/ob) mice; test: Obese Mice, Oral Glucose Tolerance Test; assay type: in vivo; conditions: 8 days on diet, oral glucose load 3 g/kg, vs control groups; for inhibition in vivo at 100 µmol/kg: level in diet 100 μmol kg^-1 of diet; for inhibition in vivo at 300 µmol/kg: level in diet 300 μmol kg^-1 of diet; for inhibition in vivo at 30 µmol/kg: level in diet 30 μmol kg^-1 of diet
Description: Obese Mice, Oral Glucose Tolerance Test
C57bl/6 obese (ob/ob) mice were fed on powdered oxoid diet. After at least one week, the mice continued on a powdered oxoid diet or were fed powdered oxoid diet containing the test compound. After 8 days on the supplemented diet all of the mice were fasted for 5 hours prior to receiving an oral load of glucose (3 g/kg). Blood samples for glucose analysis were taken 0, 45, 90 and 135 minutes after glucose administration and the results appear below as the percentage reduction in area under the blood glucose curve where test compound treated groups are compared with the control groups. 7 mice were used for each treatment.

[2] = test system: spontaneously hypertensive rats; test: Anti-Hypertensive Activity, blood pressure in spontaneously hypertensive rats; assay type: in vivo
Description: Anti-Hypertensive Activity
Eight month old female, spontaneously hypertensive rats were given test compound once each day for 15 days. Prior to the experiment and on days 8 and 15, the rats were fasted overnight from 5.00 pm and blood pressure was recorded the following morning, immediately prior to dosing and again 2 h later. Food was returned after the 2 h blood pressure reading.
The results below were obtained using the compound of Example 3 as the test compound.

[3] = Mus musculus, 192 h, read-out: % REDUCTION IN AREA UNDER BLOOD GLUCOSE CURVE

5-(4-[2-(N-Methyl-N-(2-benzoxazolyl)amino)ethoxy]benzyl)-2,4-thiazolidinedione hemihydrate [Example 3]
% REDUCTION IN AREA UNDER BLOOD GLUCOSE CURVE ([1]; level in diet 10 μmol kg^-1 of diet): 39%
Blood pressure ([2]; 10 μmole/kg once each day, Day 0 (prior to the experiment), 0 hours): 210 ± 13 mm Hg
Blood pressure ([2]; 10 μmole/kg once each day, Day 8, 0 hours (immediately prior to dosing)): 191 ± 6 mm Hg
Blood pressure ([2]; 10 μmole/kg once each day, Day 8, 2 hours after dosing): 185 ± 12 mm Hg
Blood pressure ([2]; 10 μmole/kg once each day, Day 15, 0 hours (immediately prior to dosing)): 198 ± 17 mm Hg
Blood pressure ([2]; 10 μmole/kg once each day, Day 15, 2 hours after dosing): 185 ± 5 mm Hg
Blood pressure ([2]; 30 μmole/kg once each day, Day 0 (prior to the experiment), 0 hours): 210 ± 13 mm Hg
Blood pressure ([2]; 30 μmole/kg once each day, Day 8, 0 hours (immediately prior to dosing)): 181 ± 11 mm Hg
Blood pressure ([2]; 30 μmole/kg once each day, Day 8, 2 hours after dosing): 174 ± 15 mm Hg
Blood pressure ([2]; 30 μmole/kg once each day, Day 15, 0 hours (immediately prior to dosing)): 178 ± 18 mm Hg
Blood pressure ([2]; 30 μmole/kg once each day, Day 15, 2 hours after dosing): 170 ± 13 mm Hg

CN(CCOc1ccc(CC2SC(=O)NC2=O)cc1)c1nc2ccccc2s1 (centres unmarked) [Example 1, 5-(4-[2-(N-Methyl-N-(2-benzothiazolyl)amino)ethoxy]benzyl)-2,4-thiazolidinedione]
inhibition in vivo at 100 µmol/kg [1, 3]: 51%

CN(CCOc1ccc(/C=C2\SC(=O)NC2=O)cc1)c1nc2ccccc2s1 [Example 2, 5-(4-[2-(N-Methyl-N-(2-benzothiazolyl)amino)ethoxy]benzylidene)-2,4-thiazolidinedione]
inhibition in vivo at 300 µmol/kg [1, 3]: 30%

CN(CCOc1ccc(/C=C2\SC(=O)NC2=O)cc1)c1nc2ccccc2o1 [Example 4, 5-(4-[2-(N-Methyl-N-(2-benzoxazolyl)amino)ethoxy]benzylidene)-2,4-thiazolidinedione]
inhibition in vivo at 300 µmol/kg [1, 3]: 30%

CN(CCOc1ccc(CC2SC(=O)NC2=O)cc1)c1ncccn1 (centres unmarked) [Example 5, 5-(4-[2-(N-Methyl-N-(2-pyrimidinyl)amino)ethoxy]benzyl)-2,4-thiazolidinedione]
inhibition in vivo at 100 µmol/kg [1, 3]: 40%

Cc1nc(N(C)CCOc2ccc(CC3SC(=O)NC3=O)cc2)sc1C (centres unmarked) [Example 7]
inhibition in vivo at 50 µmol/kg ([1]; Mus musculus, 192 h, level in diet 50 μmol kg^-1 of diet, read-out: % REDUCTION IN AREA UNDER BLOOD GLUCOSE CURVE): 47%

Cc1nc(N(C)CCOc2ccc(/C=C3\SC(=O)NC3=O)cc2)sc1C [Example 8, 5-(4-[2-(N-Methyl-N-[2-(4,5-dimethylthiazolyl)]amino)ethoxy]benzylidene)-2,4-thiazolidinedione]
melting point: 175 °C

CN(CCOc1ccc(CC2SC(=O)NC2=O)cc1)c1nccs1 (centres unmarked) [Example 9, 5-(4-[2-(N-Methyl-N-(2-thiazolyl)amino)ethoxy]benzyl)-2,4-thiazolidinedione]
inhibition in vivo at 100 µmol/kg [1, 3]: 58%
melting point: 186 °C

CN(CCOc1ccc(CC2SC(=O)NC2=O)cc1)c1nc(-c2ccccc2)cs1 (centres unmarked) [Example 11, 5-[4-(2-(N-Methyl-N-(2-(4-phenylthiazolyl))amino)ethoxy)benzyl]-2,4-thiazolidinedione]
inhibition in vivo at 100 µmol/kg [1, 3]: 34%
melting point: 62 to 65 °C

CN(CCOc1ccc(/C=C2\SC(=O)NC2=O)cc1)c1nc(-c2ccccc2)cs1 [Example 12, 5-(4-[2-(N-Methyl-N-(2-(4-phenylthiazolyl))amino)ethoxy]benzylidene)-2,4-thiazolidinedione]
melting point: 134 °C

Cc1sc(N(C)CCOc2ccc(CC3SC(=O)NC3=O)cc2)nc1-c1ccccc1 (centres unmarked) [Example 13, 5-(4-[2-(N-Methyl-N-[2-(4-phenyl-5-methylthiazolyl)]amino)ethoxy]benzyl)-2,4-thiazolidinedione]
inhibition in vivo at 100 µmol/kg [1, 3]: 37%
melting point: 60 to 62 °C

Cc1nc(N(C)CCOc2ccc(CC3SC(=O)NC3=O)cc2)sc1-c1ccccc1 (centres unmarked) [Example 15, 5-(4-[2-(N-Methyl-N-[2-(4-methyl-5-phenylthiazolyl)]amino)ethoxy]benzyl)-2,4-thiazolidinedione]
inhibition in vivo at 100 µmol/kg [1, 3]: 39%
melting point: 174 °C

Cc1csc(N(C)CCOc2ccc(CC3SC(=O)NC3=O)cc2)n1 (centres unmarked) [Example 17, 5-(4-[2-(N-Methyl-N-[2-(4-methylthiazolyl)]amino)ethoxy]benzyl)-2,4-thiazolidinedione]
inhibition in vivo at 100 µmol/kg [1, 3]: 34%

CN(CCOc1ccc(CC2SC(=O)NC2=O)cc1)c1ncc(-c2ccccc2)o1 (centres unmarked) [Example 19, 5-[4-(2-(N-Methyl-N-[2-(5-phenyloxazolyl)]amino)ethoxy)benzyl]-2,4-thiazolidinedione]
inhibition in vivo at 30 µmol/kg [1, 3]: 22%
melting point: 200 °C

CN(CCOc1ccc(/C=C2\SC(=O)NC2=O)cc1)c1ncc(-c2ccccc2)o1 [Example 20, 5-(4-[2-(N-Methyl-N-[2-(5-phenyloxazolyl)]amino)ethoxy]benzylidene)-2,4-thiazolidinedione]
melting point: 191 °C

Cc1nc(N(C)CCOc2ccc(CC3SC(=O)NC3=O)cc2)oc1C (centres unmarked) [Example 21, 5-(4-[2-(N-Methyl-N-[2-(4,5-dimethyloxazolyl)]amino)ethoxy]benzyl)-2,4-thiazolidinedione]
inhibition in vivo at 30 µmol/kg [1, 3]: 33%

O=C1NC(=O)/C(=C/c2ccc(OCCNc3ncccn3)cc2)S1 [Example 24, 5-[4-(2-(2-Pyrimidinylamino)ethoxy)benzylidene]-2,4-thiazolidinedione]
inhibition in vivo at 30 µmol/kg [1, 3]: 15%
melting point: 234 °C

CC(=O)N(CCOc1ccc(CC2SC(=O)NC2=O)cc1)c1ncccn1 (centres unmarked) [Example 25, 5-(4-[2-(N-Acetyl-N-(2-pyrimidinyl)amino)ethoxy]benzyl)-2,4-thiazolidinedione]
inhibition in vivo at 30 µmol/kg [1, 3]: 19%

O=C1NC(=O)C(Cc2ccc(OCCN(Cc3ccccc3)c3nc4ccccc4s3)cc2)S1 (centres unmarked) [Example 27, 5-(4-(2-(N-(2-Benzothiazolyl)-N-benzylamino)ethoxy)benzyl)-2,4-thiazolidinedione]
inhibition in vivo at 300 µmol/kg [1, 3]: 56%

CN(CCCOc1ccc(/C=C2\SC(=O)NC2=O)cc1)c1nc2ccccc2o1 [Example 29, 5-(4-[3-(N-Methyl-N-(2-benzoxazolyl)amino)propoxy]benzylidene)-2,4-thiazolidinedione]
inhibition in vivo at 300 µmol/kg [1, 3]: 32%
melting point: 202 to 204 °C

CN(CCOc1ccc(/C=C2\SC(=O)NC2=O)cc1)c1ccccn1 [Example 31, 5-(4-[2-(N-Methyl-N-(2-pyridyl)amino)ethoxy]benzylidene)-2,4-thiazolidinedione]
melting point: 177 to 179 °C

CN(CCCCOc1ccc(/C=C2\SC(=O)NC2=O)cc1)c1nc2ccccc2o1 [Example 32, 5-(4-[4-(N-Methyl-N-(2-benzoxazolyl)amino)butoxy]benzylidene)-2 4-thiazolidinedione]
melting point: 168 °C

CN(CCCCOc1ccc(CC2SC(=O)NC2=O)cc1)c1nc2ccccc2o1 (centres unmarked) [Example 33, 5-(4-[4-(N-Methyl-N-(2-benzoxazolyl)amino)butoxy]benzyl)-2,4-thiazolidinedione]
inhibition in vivo at 300 µmol/kg [1, 3]: 25%
melting point: 112 °C

O=C1NC(=O)C(Cc2ccc(OCCNc3nc4ccccc4o3)cc2)S1 (centres unmarked) [Example 35, 5-(4-[2-(N-(2-Benzoxazolyl)amino)ethoxy]benzyl)-2,4-thiazolidinedione]
inhibition in vivo at 100 µmol/kg [1, 3]: 44%
melting point: 202 to 203 °C

CC(C)N(CCOc1ccc(CC2SC(=O)NC2=O)cc1)c1nc2ccccc2o1 (centres unmarked) [Example 36, 5-(4-[2-(N-Isopropyl-N-(2-benzoxazolyl)amino)ethoxy]benzyl)-2,4-thiazolidinedione]
inhibition in vivo at 100 µmol/kg [1, 3]: 20%

From US6686475B2, “Compounds” (Beecham Group p.l.c., priority 1988, dated 2004)
